How the values were obtained:
BRD4 (BD1) = biological target: T1, BRD4 (BD1) (Homo sapiens, UniProt O60885); test: Binding assay BRD4/acetylated peptide H4 (TR-FRET protein-protein interaction assay)
T1 construct: with relatively long constructs also being possible, preferably amino acids 44-168; made in house; host or cells: E. coli
Summary of the method: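 Displacement of biotin-Ac-H4 peptide from His6-tagged BRD4(BD1), final usually 10 nM, read as Eu-streptavidin to anti-His-XL665 TR-FRET (665/620 nm). Compounds tested at 11 doses up to 20 μM in duplicate, pH 7.5 HEPES, 22 °C then 4 °C incubation; IC50 by 4-parameter regression.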

MOLM-13 cells = test: Cell proliferation assay (alamarBlue), MOLM-13; assay type: cell-based; details: Homo sapiens, 96 hours incubation, inhibition of cell proliferation
Procedure: In accordance with the invention, the capability of the substances to inhibit cell proliferation was determined Cell viability was determined using the alamarBlue® reagent (Invitrogen) in a Victor X3 Multilabel Reader (Perkin Elmer). The excitation wavelength was 530 nm and the emission wavelenth […].
The MOLM-13 cells (DSMZ, ACC 554) were sown at a concentration of 4000 cells/well in 100 μl growth medium (RPMI1640, 10% FCS) on 96-well microtitre plates.
After an overnight incubation at 37° C., the fluorescence values (CI values) were determined. The plates were then treated with various substance dilutions (1E-5 M, 3E-6 M, 1E-6M, 3E-7 M, 1E-7 M, 3E-8 M, 1E-8 M) and incubated at 37° C. for 72 (MV4-11-, LOX-IMVI cells), 96 (MOLM-13-, B16F10-, MDA-MB-431-, Caov-3 cells), 120 (MOLP-8-, KMS-12-PE cells) or 168 (LAPC-4 cells) hours. The fluorescence values (CO values) were then determined. For the data analysis, the CI values were subtracted from the CO values and the results were compared between cells treated with different dilutions of the substance or with buffer solution only. These were used to calculate the IC 50 values (substance concentration required for 50% inhibition of cell proliferation).

Structure (SMILES)	IC50 (BRD4 (BD1)) [nM]	IC50 (MOLM-13 cells) [nM]
CNC(=O)N1N=C(c2ccc(-c3ccccc3NS(C)(=O)=O)cc2)c2cc(OC)c(OC)cc2CC1C (racemic) [Example 68, (±)-7,8-dimethoxy-N,4-dimethyl-1-{2′-[(methylsulphonyl)amino]-biphenyl-4-yl}-4,5-dihydro-3H-2,3-benzodiazepine-3-carboxamide]	70	1170
CNC(=O)N1N=C(c2ccc(-c3ccccc3S(C)(=O)=O)cc2)c2cc(OC)c(OC)cc2CC1C (racemic) [Example 69, (±)-7,8-dimethoxy-N,4-dimethyl-1-[2′-(methylsulphonyl)biphenyl-4-yl]-4,5-dihydro-3H-2,3-benzodiazepine-3-carboxamide]	130	1210
CNC(=O)N1N=C(c2ccc(-c3ccc(NS(C)(=O)=O)cc3)cc2)c2cc(OC)c(OC)cc2CC1C (racemic) [Example 70, (±)-7,8-dimethoxy-N,4-dimethyl-1-{4′-[(methylsulphonyl)amino]biphenyl-4-yl}-4,5-dihydro-3H-2,3-benzodiazepine-3-carboxamide]	40	300
CNC(=O)N1N=C(c2ccc(-c3ccccc3C)cc2)c2cc(OC)c(OC)cc2CC1C (racemic) [Example 72, (±)-7,8-dimethoxy-N,4-dimethyl-1-(2′-methylbiphenyl-4-yl)-4,5-dihydro-3H-2,3-benzodiazepine-3-carboxamide]	210	660
CNC(=O)N1N=C(c2ccc(-c3cccc(S(C)(=O)=O)c3)cc2)c2cc(OC)c(OC)cc2CC1C (racemic) [Example 73, (±)-7,8-dimcthoxy-N,4-dimethyl-1-[3′-(methylsulphonyl)biphenyl-4-yl]-4,5-dihydro-3H-2,3-benzodiazepine-3-carboxamide]	30	300
CNC(=O)N1N=C(c2ccc(-c3cnc(OC)nc3)cc2)c2cc(OC)c(OC)cc2CC1C (racemic) [Example 74, (±)-7,8-dimethoxy-1-[4-(2-methoxypyrimidin-5-yl)phenyl]-N,4-dimethyl-4,5-dihydro-3H-2,3-benzodiazepine-3-carboxamide]	80	550
CNC(=O)N1N=C(c2ccc(-c3ccc(F)c(C#N)c3)cc2)c2cc(OC)c(OC)cc2CC1C (racemic) [Example 75, (±)-1-(3′-cyano-4′-fluorobiphenyl-4-yl)-7,8-dimethoxy-N,4-dimethyl-4,5-dihydro-3H-2,3-benzodiazepine-3-carboxamide]	130	660
CNC(=O)N1N=C(c2ccc(-c3cccnc3OC)cc2)c2cc(OC)c(OC)cc2CC1C (racemic) [Example 76, (±)-7,8-dimethoxy-1-[4-(2-methoxypyridin-3-yl)phenyl]-N,4-dimethyl-4,5-dihydro-3H-2,3-benzodiazepine-3-carboxamide]	50	750
CNC(=O)N1N=C(c2ccc(-c3cccc(C(N)=O)c3)cc2)c2cc(OC)c(OC)cc2CC1C (racemic) [Example 77, (±)-1-(3′-carbamoylbiphenyl-4-yl)-7,8-dimethoxy-N,4-dimethyl-4,5-dihydro-3H-2,3-benzodiazepine-3-carboxamide]	40	490
CNC(=O)N1N=C(c2ccc(-c3ccc(C(=O)N4CCCC4)cc3)cc2)c2cc(OC)c(OC)cc2CC1C (racemic) [Example 78, (±)-7,8-dimethoxy-N,4-dimethyl-1-[4′-(pyrrolidin-1-ylcarbonyl)biphenyl-4-yl]-4,5-dihydro-3H-2,3-benzodiazepine-3-carboxamide]	40	370
CNC(=O)N1N=C(c2ccc(-c3ccc(C(=O)N4CCOCC4)cc3)cc2)c2cc(OC)c(OC)cc2CC1C (racemic) [Example 79, (±)-7,8-dimethoxy-N,4-dimethyl-1-[4′-(morpholin-4-ylcarbonyl)biphenyl-4-yl]-4,5-dihydro-3H-2,3-benzodiazepine-3-carboxamide]	50	460
CNC(=O)N1N=C(c2ccc(-c3cncc(OC)c3)cc2)c2cc(OC)c(OC)cc2CC1C (racemic) [Example 80, (±)-7,8-dimethoxy-1-[4-(5-methoxypyridin-3-yl)phenyl]-N,4-dimethyl-4,5-dihydro-3H-2,3-benzodiazepine-3-carboxamide]	50	560
CNC(=O)N1N=C(c2ccc(-c3cncc(C)c3)cc2)c2cc(OC)c(OC)cc2CC1C (racemic) [Example 81, (±)-7,8-dimethoxy-N,4-dimethyl-1-[4-(5-methylpyridin-3-yl)phenyl]-4,5-dihydro-3H-2,3-benzodiazepine-3-carboxamide]	50	300
CNC(=O)N1N=C(c2ccc(-c3cnccc3C)cc2)c2cc(OC)c(OC)cc2CC1C (racemic) [Example 82, (±)-7,8-dimethoxy-N,4-dimethyl-1-[4-(4-methylpyridin-3-yl)phenyl]-4,5-dihydro-3H-2,3-benzodiazepine-3-carboxamide]	80	550
CNC(=O)N1N=C(c2ccc(-c3ccc(C(=O)NC4CC4)cc3)cc2)c2cc(OC)c(OC)cc2CC1C (racemic) [Example 83, (±)-1-[4′-(cyclopropylcarbamoyl)biphenyl-4-yl]-7,8-dimethoxy-N,4-dimethyl-4,5-dihydro-3H-2,3-benzodiazepine-3-carboxamide]	30	450
CNC(=O)N1N=C(c2ccc(-c3ccncc3F)cc2)c2cc(OC)c(OC)cc2CC1C (racemic) [Example 84, (±)-1-[4-(3-fluoropyridin-4-yl)phenyl]-7,8-dimethoxy-N,4-dimethyl-4,5-dihydro-3H-2,3-benzodiazepine-3-carboxamide]	60	340
CNC(=O)N1N=C(c2ccc(-c3cccc(C(F)(F)F)c3)cc2)c2cc(OC)c(OC)cc2CC1C (racemic) [Example 85, (±)-7,8-dimethoxy-N,4-dimethyl-1-[3′-(trifluoromethyl)biphenyl-4-yl]-4,5-dihydro-3H-2,3-benzodiazepine-3-carboxamide]	290	1080
CNC(=O)N1N=C(c2ccc(-c3ccc(C(F)(F)F)cc3)cc2)c2cc(OC)c(OC)cc2CC1C (racemic) [Example 86, (±)-7,8-dimethoxy-N,4-dimethyl-1-[4′-(trifluoromethyl)biphenyl-4-yl]-4,5-dihydro-3H-2,3-benzodiazepine-3-carboxamide]	390	1430
CNC(=O)N1N=C(c2ccc(-c3cccc(OC)c3)cc2)c2cc(OC)c(OC)cc2CC1C (racemic) [Example 87, (±)-7,8-dimethoxy-1-(3′-methoxybiphenyl-4-yl)-N,4-dimethyl-4,5-dihydro-3H-2,3-benzodiazepine-3-carboxamide]	110	560
CNC(=O)N1N=C(c2ccc(-c3ccc(-c4ccc(Cl)s4)cc3)cc2)c2cc(OC)c(OC)cc2CC1C (racemic) [Example 88, (±)-1-[4′-(5-chlorothien-2-yl)biphenyl-4-yl]-7,8-dimethoxy-N,4-dimethyl-4,5-dihydro-3H-2,3-benzodiazepine-3-carboxamide]	290	670
CNC(=O)N1N=C(c2ccc(-c3cccc(F)c3)cc2)c2cc(OC)c(OC)cc2CC1C (racemic) [Example 89, (±)-1-(3′-fluorobiphenyl-4-yl)-7,8-dimethoxy-N,4-dimethyl-4,5-dihydro-3H-2,3-benzodiazepine-3-carboxamide]	140	380

Reference: patent publication US9890147B2 (BAYER PHARMA AKTIENGESELLSCHAFT, priority 2012, dated 2018)
